Results as given in PMC2359919, “Molecular targeting of retinoic acid metabolism in neuroblastoma: the role of the CYP26 inhibitor R116010 in vitro and in vivo” (British Journal of Cancer, 2007).

Tests used:
[1] = system: SH-SY5Y, NGP, SH-EP and GIMEN cells; test: Intracellular ATRA and 13cisRA concentrations in neuroblastoma cells, normal-phase HPLC; type: cell-based, human
Procedure: (§1) SH-SY5Y, SH-EP (N- and S-type cells respectively derived from the parental line SK-N-SH), LAN6, IMR-32, NGP and GIMEN neuroblastoma cell lines were cultured routinely in RPMI 1640 medium containing fetal calf serum (10%) and L-glutamine (2 mM). Cells were grown at 37°C in a humidified incubator containing 5% CO2.
(§2) 13-cis-Retinoic acid and ATRA were dissolved in DMSO and diluted in cell culture medium to obtain final concentrations of 0.1–10 μM. The final concentration of DMSO in all cases was <0.2%. All experiments were performed in dim light and tubes containing retinoids were wrapped in aluminium foil.
Cell pellets obtained from retinoid incubations were re-suspended in 2 ml cell culture medium and disrupted by passing the samples several times through a syringe and hypodermic needle (25G × 1 inches, 0.5 mm × 25 mm; Terumo, Somerset, NJ, USA). Tumour and liver tissues were re-suspended in PBS and homogenised (T25 homogeniser, IKA Laboratories, Staufen, Germany). Retinoids were extracted as described previously ([Veal et al, 2002]; [Armstrong et al, 2005b]). Samples were reconstituted in 200 μl mobile phase A (n-hexane:dichloromethane:propan-2-ol, 400 : 1 : 0.27) and analysed by normal-phase HPLC as described previously ([Veal et al, 2002]). For LC/MS analysis, samples were reconstituted in 200 μl mobile phase A (50% acetonitrile, 50% (0.2%) acetic acid, v v^−1).
Quantification of retinoid levels was carried out by HPLC analysis using a Waters 2690 Separations Module and 996 Photodiode array detector (Waters Ltd, Elstree, UK) and Waters Millennium software for data acquisition. Cell volumes were determined as described previously ([Veal et al, 2002]), and intracellular RA concentrations were expressed in micromolars.

[2] = system: CYP26B1; test: CYP26B1 mRNA expression in neuroblastoma cells, real-time PCR; type: cell-based, human; conditions: 24 h
Procedure: as §1, §2
CYP26 short hairpin RNAs (shRNAs) were generated using the siSTRIKE U6 Hairpin Cloning System (Promega, Southampton, UK). The CYP26A1, B1 and Ctrl siRNA sequences were designed using Promega software. The cDNA target sequences were CYP26A1 5′-gcgcatcgagcagaacatt; CYP26B1 5′-gtcgcggagggagaagtat; and Ctrl 5′-gccccgcaattgagaaatg. Sense and antisense strands were annealed and ligated into the linearised psiSTRIKE Neomycin Vector. SH-SY5Y cells were transfected with psi-CYP26A1 or psi-CYP26B1 either singly or in combination, or with psi-Ctrl, in six-well plates (1 μg each) or 75 cm^2 flasks (8.9 μg each) using FuGENE 6 reagent (Roche, Lewes, UK) according to the manufacturer's instructions. After a 6 h transfection, cells were treated with ATRA for 40 h and harvested for RNA isolation and HPLC analysis.
RNA was reverse-transcribed using Promega's Reverse Transcription System according to the manufacturer's instructions, using random hexamer primers. […] As internal standard, β-actin was measured simultaneously using the endogenous control assay provided by Applied Biosystems. […] Standard curves were generated from serial dilutions of cDNA prepared from cells treated with ATRA (1 μM) and the data were analysed using the GeneAmp Sequence Detection System software. CYP26C1 expression was analysed as described previously ([Taimi et al, 2004]).

Row | Compound | Effect on ATRA concentrations after incubation with 13cisRA ([1]; NGP cells, 10 μM 13cisRA with 1 or 10 μM R116010, 24 h) | Effect on ATRA levels after incubation with 13cisRA ([1]; SH-EP or GIMEN cells, 10 μM 13cisRA with 1 or 10 μM R116010, 24 h) | Effect on intracellular ATRA concentrations after ATRA treatment ([1]; SH-EP or GIMEN cells, 10 μM ATRA with 1 or 10 μM R116010, 24 h) | Effect on intracellular ATRA concentrations after ATRA treatment ([1]; SH-SY5Y and NGP cells, 10 μM ATRA with 1 or 10 μM R116010, 24 h) | Effect on ATRA concentrations after incubation with 13cisRA ([1]; SH-SY5Y cells, 10 μM 13cisRA with 1 or 10 μM R116010, 24 h) | Effect on 13cisRA concentrations after incubation with 13cisRA ([1]; all four cell lines, 10 μM 13cisRA with 1 or 10 μM R116010, 24 h) | Effect on 13cisRA levels after incubation with ATRA ([1]; any of the cell lines, 10 μM ATRA with 1 or 10 μM R116010, 24 h) | Effect on CYP26B1 expression, R116010 alone ([2]; SH-SY5Y cells, R116010 1 μM alone) | Effect on CYP26B1 expression, co-incubation with retinoid ([2]; SH-SY5Y cells, R116010 1 μM with ATRA or 13cisRA (0.01, 0.1 μM) vs retinoid alone) | CYP26B1 induction ([2]; 0.1 μM retinoid, panel of neuroblastoma cell lines, relative to SH-SY5Y cells treated with 0.01 μM ATRA)
1 | C[C@@H]([C@H](c1ccc(Nc2nc3ccccc3s2)cc1)n1ccnc1)N(C)C [R116010] | similar, although nonsignificant, trend | no observable effect | no effect | significant increases | significant increase | no significant changes | no effect | no effect | significantly increased | –
2 | CC1=C(/C=C/C(C)=C/C=C/C(C)=C/C(=O)O)C(C)(C)CCC1 [ATRA, all-trans-retinoic acid] | – | – | – | – | – | – | – | – | – | induced in all cell lines examined, except IMR-32
